Patent US5534542A, “Methods and materials relating to a bi-metallic cross-linking species” (priority 1994, dated 1996)
“Also recorded” adds a separate entry of the source.

Columns and labels:
Fur = biological target: T1, Fur (Escherichia coli, UniProt P0A9A9); assay: In vitro DNA-protein crosslinking assay (gel mobility shift), Fur; type: biochemical; conditions: Fur and DNA fragment bearing its recognition sequence
T1 construct: made in house
Text: (§1) (Pried & Crothers, 1981; Garner & Revsin, 1981).
(§2) Proteins and DNA Probes. TFIIIA from Xenopus Borealis was provided by T. Tullius (Johns Hopkins University) and A. Wolffe (NIH). Fur was purified based on the method of Neilands and coworkers. MerR extract was obtained and quantified as described (O'Halloran, 1989). DNA probes used in TFIIIA, Fur, and MerR gel mobility shift assays were derived from plasmids pXBS201 (obtained from T. Tullius), pGMer and pBIB, respectively. The 249-bp BamHI-HindIII fragment from pXBS201, 309-bp XhoI-PvuII fragment from pBIB and 411-bp BssHII-BssHII fragment from pGMer are labeled with [α-^32 P]dNTPs (Amersham) by the Klenow fragment of DNA polymerase (Bethesda Research Laboratories). The labeled fragments are then isolated and purified by gel electrophoresis. DNA concentrations were determined by optical density at 260 nm by using a molar extinction coefficient of 1.3×10^4 per nucleotide pair.
(§3) Crosslinking Activity Assay. DNA-protein-crosslinker are incubated in 20 μl (final volume) of binding buffer. The buffer for TFIIIA and MerR extract reaction is 20 mM Hepes [pH 7.5], 50 mM K2 SO4, 10 μMZnsO4, 3 mM MgCl2, 10% glycerol and 70 μg/ml Albumin, Bovine-carboxymethyl [c-BSA] (Sigma). The Fur incubation buffer is 20 mM Bis-Tris/Borate [pH 7.0], 50 mM K2 SO4, 5% glycerol, 1 mM MgCl2, 5 μG/ml salmon sperm DNA and 100 μg/ml c-BSA. […]

Stability at low pH = type: physicochemical
TFIIIA = biological target: T2, TFIIIA (Xenopus borealis, UniProt P17842); assay: In vitro DNA-protein crosslinking assay (gel mobility shift), TFIIIA; type: biochemical; conditions: zinc finger transcription factor TFIIIA and DNA fragment bearing its recognition sequence
T2 sequence (P17842 1-339): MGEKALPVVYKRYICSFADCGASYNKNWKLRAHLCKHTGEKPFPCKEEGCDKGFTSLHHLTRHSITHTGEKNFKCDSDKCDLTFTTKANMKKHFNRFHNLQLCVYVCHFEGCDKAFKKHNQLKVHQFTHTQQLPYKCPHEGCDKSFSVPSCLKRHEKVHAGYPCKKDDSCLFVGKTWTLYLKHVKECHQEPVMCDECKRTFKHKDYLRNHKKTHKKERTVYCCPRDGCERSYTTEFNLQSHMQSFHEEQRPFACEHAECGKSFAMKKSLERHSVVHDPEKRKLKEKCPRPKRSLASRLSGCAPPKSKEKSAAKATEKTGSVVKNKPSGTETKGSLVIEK
Text: as §1, §2, §3

[1] = Solubility of the cross-linker complex in solvents; type: physicochemical
Text: The cross-linker species of the present invention has been characterized by a combination of analytical and spectroscopic techniques. […] The complex is quite soluble in DMSO, although a warning has been issued concerning the compositions of DMSO solutions of cisplatin derivatives (Sundquist, 1987). The proton NMR spectrum of the complex in d7-DMF is poorly resolved, and the resonances due to the residual protons in the deuterated solvent tend to obscure parts of the spectrum of the complex.
This appears to be an effect of particle size on dissolution rate, since no differences can be discerned in the infrared spectra of the complex before or after this treatment. In particular there is no evidence for coordinated DMSO in the region 1000-1200 cm-^1.

MerR protein = biological target: T3, MerR protein (Pseudomonas aeruginosa, UniProt P0A183); assay: In vitro DNA-protein crosslinking assay (gel mobility shift), MerR; type: biochemical; conditions: MerR and DNA fragment bearing its recognition sequence
T3 construct: made in house
T3 sequence (P0A183 whole entry, the tested form may be a part): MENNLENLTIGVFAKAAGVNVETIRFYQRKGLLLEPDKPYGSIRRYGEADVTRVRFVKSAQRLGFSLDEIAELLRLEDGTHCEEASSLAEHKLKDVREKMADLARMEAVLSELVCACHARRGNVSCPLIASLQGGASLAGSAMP
Protocol: FIGS. 8-11: In vitro assay for crosslinking of proteins to DNA by 5-Chloromercuri-1,2-pentanediamine)dichloro platinum(II). Lane 1:4.5 pM DNA, 500 cpm Lane 2: DNA+460 pM MerR dimer Lane 3: DNA+protein+2.4 nM unlabeled competitor DNA Lane 4: DNA+protein+25 mM KCN Lane 5:DNA-protein complex treated with 10 mM 1 prior to competition. Lane 6: DNA-protein complex treated with 2 mM 1 prior to competition. Lane 7: DNA-protein complex treated with 0.4 mM crosslinker prior to competition Lanes 8-10: Reactions as for lane 5-7, pretreated with 25 mM KCN prior to competition. (Grant)
as §1
Proteins and DNA Probes. TFIIIA from Xenopus Borealis was provided by T. Tullius (Johns Hopkins University) and A. Wolffe (NIH). Fur was purified based on the method of Neilands and coworkers. MerR extract was obtained and quantified as described (O'Halloran, 1989). DNA probes used in TFIIIA, Fur, and MerR gel mobility shift assays were derived from plasmids pXBS201 (obtained from T. Tullius), pGMer and pBIB, respectively. […] DNA concentrations were determined by optical density at 260 nm by using a molar extinction coefficient of 1.3×10^4 per nucleotide pair. […]

[2] = Kinetics of the reaction of the complex with DMSO (UV spectroscopy); type: physicochemical; conditions: room temperature; in accord with published rate data for cis-Pt(NH3)2Cl2
Protocol: ^1 H, ^13 C, ^195 Pt and ^199 Hg NMR spectra were recorded on a Varian VXR-400 Fourier Transform spectrometer, operating at 399.95 MHZ (^1 H), […] (^13 C), 85.736 MHz (^195 Pt), and 71.600 MHz (^199 Hg). Standard acquisition parameter files were used for the accumulation of ^1 H and ^13 C spectra. For ^195 Pt NMR, a spectral window of 50 KHz was used, with a pulse width of 30 μsec, and a pulse delay of 100 μsec. Broadband proton decoupling was employed during acquisition of the spectra. ^195 Pt spectra were referenced externally using a 0.1M aqueous solution of K2 PtCl4 in 0.1M KCl. Chemical shifts are reported relative to K2 PtCl6 =0 ppm. (δK2 PtCl4 =[…]). Proton-decoupled ^199 Hg NMR spectra were recorded using a spectral window of 30 KHz, a pulse width of 30 μsec, and a pulse delay of 100 μsec. Chemical shifts are reported relative to external Hg(CH3)2 (0 ppm). Mass spectra were recorded using a VG instruments VG70-250 S/SE instrument. Infrared spectra were recorded using either a Perkin-Elmer PE-283 or a Mattson Alpha Centauri FTIR spectrometer. UV spectra were obtained using a Hewlett-Packard HP8452 spectrophotometer running off of an IBM-AT personal computer. Kinetic measurements were controlled using the Hewlett-Packard Multicell Kinetics Module. Data manipulation and plotting was performed using the program Igor^24 running on a Macintosh IIx personal computer. […]

[3] = test system: radiolabelled DNA fragment; assay: DNA-binding assay: electrophoretic mobility shift of a radiolabelled DNA fragment on polyacrylamide gel; conditions: for DNA mobility shift with increasing concentrations: polyacrylamide gel electrophoresis of radiolabelled DNA fragment
Text: The assay used to determine the DNA-binding activity of the complexes is based on the assays developed by Lippard and coworkers for assaying the extent of DNA binding by cis-DDP, in which the electrophoretic mobility of a DNA molecule is altered by binding of the drug (Sundquist, 1990). Charge neutralization and DNA bending caused by binding of the divalent metal complex have been invoked to explain the observed mobility shift.

[4] = cited from earlier work

T1 sequence (P0A9A9 2-148): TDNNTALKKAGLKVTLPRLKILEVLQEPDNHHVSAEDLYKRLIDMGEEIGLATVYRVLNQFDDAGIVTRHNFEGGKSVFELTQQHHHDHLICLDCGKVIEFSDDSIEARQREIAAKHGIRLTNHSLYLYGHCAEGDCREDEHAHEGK

5-Chloromercuri-1,2-pentanediamine)dichloro platinum(II) [Merplatin]
induction of DNA-protein cross-links, Fur (Fur): can efficiently induce DNA-protein cross-links | stability at low pH (Stability at low pH): stable at low pH | induction of DNA-protein cross-links, TFIIIA (TFIIIA): can efficiently induce DNA-protein cross-links | solubility in DMSO ([1]; DMSO): quite soluble | solubility in NMP after reprecipitation ([1]; NMP, after dissolution in DMSO and immediate precipitation with ethanol): readily soluble | solubility in amide solvents ([1]; dimethylformamide or 1-methylpyrrolidinone (NMP), complex as prepared in Example 1): limited solubility; also recorded: dissolves sparingly | concentration of solutions that can be prepared in amide solvents ([1]; dimethylformamide or NMP, complex as prepared in Example 1): ~ 10 mM | solubility in water and most organic solvents ([1]; water and most organic solvents, listed as complex): limited solubility; also recorded: low solubility | induction of DNA-protein cross-links, MerR (MerR protein): can efficiently induce DNA-protein cross-links | half-life of reaction with DMSO [2]: approximately 3 hours | binding to DNA [3]: bind avidly to DNA | DNA mobility shift with increasing concentrations [3]: saturation binding curve which is identical in form with a curve obtained by incubation of DNA with PtenCl2

[CH3][Hg][Cl] [MeHgCl]
DNA mobility shift with increasing concentrations [3]: does not exhibit a mobility shift at all

NCCN.[Cl][Pt][Cl] [PtenCl2]
DNA mobility shift with increasing concentrations [3]: saturation binding curve

N.N.[Cl][Pt][Cl] [cisplatin, cis-dicholorodiammineplatinum(II), reference compound]
induction of DNA-protein cross-links, Fur (Fur): only the latter reagent can efficiently induce DNA-protein cross-links | induction of DNA-protein cross-links, TFIIIA (TFIIIA): only the latter reagent can efficiently induce DNA-protein cross-links | induction of DNA-protein cross-links, MerR (MerR protein): only the latter reagent can efficiently induce DNA-protein cross-links | binding to DNA [3]: bind avidly to DNA

NCC1(CN)CCOCC1.O=C([O-])C1(C(=O)[O-])CCC1.[Pt+2] [enloplatin]
toxicity in phase I trials [4]: caused nephrotoxicity

O=C([O-])C1(C(=O)[O-])CCC1.[NH-]CC(C[NH-])(CO)CO.[Pt+4] [zeniplatin]
toxicity in phase I trials [4]: caused nephrotoxicity
